In patent US11702429B2, “mTORC modulators and uses thereof” (Aeovian Pharmaceuticals, Inc., priority 2019, dated 2023):

Experiments:
mTORC1 = molecular target: T1, mTORC1 (Homo sapiens, UniProt P42345+P62942); assay: Inhibition assay for mTORC1: phosphorylation of pS6K at Thr389, AlphaLISA in PC3 cells; format: cell-based; settings: for IC50: read-out: pIC50 mTORC1 (converted)
T1 construct: endogenous in cells; host or cells: PC3 cells (human prostate adenocarcinoma)

mTORC2 = molecular target: T2, mTORC2 (Homo sapiens, UniProt P42345+P62942); assay: Inhibition assay for mTORC2: phosphorylation of pAkt at Ser473, AlphaLISA in PC3 cells; format: cell-based; settings: for IC50: read-out: pIC50 mTORC2 (converted)
T2 construct: endogenous in cells; host or cells: PC3 cells (human prostate adenocarcinoma)
T2 sequence (P62942 2-108 limits assumed, other chains not shown): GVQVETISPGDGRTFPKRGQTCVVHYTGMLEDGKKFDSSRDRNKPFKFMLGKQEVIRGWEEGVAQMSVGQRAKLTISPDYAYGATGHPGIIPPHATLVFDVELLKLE

Row | pIC50 mTORC1 (mTORC1; Rapamycin analogs substituted at C40, pS6K Thr389, PC3 cells, 24 hours treatment) | pIC50 mTORC2 (mTORC2; Rapamycin analogs substituted at C40, pAkt Ser473, PC3 cells, 24 hours treatment) | IC50 (mTORC1) [nM] | IC50 (mTORC2) [nM] | Compound
1 | A (pIC50 for mTORC1 of >9.5 as A) | C (greater than 6 as C) |  |  | COC1C[C@@H]2CC[C@@H](C)[C@@](O)(O2)C(=O)C(=O)N2CCCCC2C(=O)O[C@H]([C@H](C)C[C@@H]2CC[C@@H](OCCCOCCO)[C@H](OC)C2)CC(=O)[C@H](C)/C=C(\C)[C@@H](O)[C@@H](OC)C(=O)[C@H](C)C[C@H](C)/C=C/C=C/C=C/1C (stereo partly drawn) [Compound 352]
2 |  |  | < 0.316 | < 1000 | COC1C[C@@H]2CC[C@@H](C)[C@@](O)(O2)C(=O)C(=O)N2CCCCC2C(=O)O[C@H]([C@H](C)C[C@@H]2CC[C@@H](OCCN3CCC(O)CC3)[C@H](OC)C2)CC(=O)[C@H](C)/C=C(\C)[C@@H](O)[C@@H](OC)C(=O)[C@H](C)C[C@H](C)/C=C/C=C/C=C/1C (stereo partly drawn) [Compound 353]
3 |  |  | < 0.316 | < 1000 | COC1C[C@@H]2CC[C@@H](C)[C@@](O)(O2)C(=O)C(=O)N2CCCCC2C(=O)O[C@H]([C@H](C)C[C@@H]2CC[C@@H](OC(=O)NCc3ccccc3)[C@H](OC)C2)CC(=O)[C@H](C)/C=C(\C)[C@@H](O)[C@@H](OC)C(=O)[C@H](C)C[C@H](C)/C=C/C=C/C=C/1C (stereo partly drawn) [Compound 355]
4 |  |  | < 0.316 | < 1000 | COC1C[C@@H]2CC[C@@H](C)[C@@](O)(O2)C(=O)C(=O)N2CCCCC2C(=O)O[C@H]([C@H](C)C[C@@H]2CC[C@@H](OC(=O)N(C)CCN3CCOCC3)[C@H](OC)C2)CC(=O)[C@H](C)/C=C(\C)[C@@H](O)[C@@H](OC)C(=O)[C@H](C)C[C@H](C)/C=C/C=C/C=C/1C (stereo partly drawn) [Compound 356]
5 |  |  | < 0.316 | < 1000 | COC1C[C@@H]2CC[C@@H](C)[C@@](O)(O2)C(=O)C(=O)N2CCCCC2C(=O)O[C@H]([C@H](C)C[C@@H]2CC[C@@H](OC(=O)N(CCO)CCO)[C@H](OC)C2)CC(=O)[C@H](C)/C=C(\C)[C@@H](O)[C@@H](OC)C(=O)[C@H](C)C[C@H](C)/C=C/C=C/C=C/1C (stereo partly drawn) [Compound 357, [(1R,2R,4S)-4-[(2R)-2-[(1R,9S,12S,15R,16E,18R,19R,21R,23S,24E,26E,28E,30S,32S,35R)-1,18-dihydroxy-19,30-dimethoxy-15,17,21,23,29,35-hexamethyl-2,3,10,14,20-pentaoxo-11,36-dioxa-4-azatricyclo[30.3.1.0^4,9]hexatriaconta-16,24,26,28-tetraen-12-yl]propyl]-2-methoxy-cyclohexyl] N,N-bis(2-hydroxyethyl)carbamate]
6 |  |  | < 0.316 | < 1000 | COC1C[C@@H]2CC[C@@H](C)[C@@](O)(O2)C(=O)C(=O)N2CCCCC2C(=O)O[C@H]([C@H](C)C[C@@H]2CC[C@@H](OC(=O)NCCCN(CCO)CCO)[C@H](OC)C2)CC(=O)[C@H](C)/C=C(\C)[C@@H](O)[C@@H](OC)C(=O)[C@H](C)C[C@H](C)/C=C/C=C/C=C/1C (stereo partly drawn) [Compound 358]
7 |  |  | < 0.316 | < 1000 | COC1C[C@@H]2CC[C@@H](C)[C@@](O)(O2)C(=O)C(=O)N2CCCCC2C(=O)O[C@H]([C@H](C)C[C@@H]2CC[C@@H](OC(=O)N(C)CCN(C)C)[C@H](OC)C2)CC(=O)[C@H](C)/C=C(\C)[C@@H](O)[C@@H](OC)C(=O)[C@H](C)C[C@H](C)/C=C/C=C/C=C/1C (stereo partly drawn) [Compound 359]
8 |  |  | > 3.16 | < 1000 | COC1C[C@@H]2CC[C@@H](C)[C@@](O)(O2)C(=O)C(=O)N2CCCCC2C(=O)O[C@H]([C@H](C)C[C@@H]2CC[C@@H](OC(=O)NC3C(O)O[C@H](CO)[C@@H](O)[C@@H]3O)[C@H](OC)C2)CC(=O)[C@H](C)/C=C(\C)[C@@H](O)[C@@H](OC)C(=O)[C@H](C)C[C@H](C)/C=C/C=C/C=C/1C (stereo partly drawn) [Compound 361]
9 |  |  | < 0.316 | < 1000 | COC1C[C@@H]2CC[C@@H](C)[C@@](O)(O2)C(=O)C(=O)N2CCCCC2C(=O)O[C@H]([C@H](C)C[C@@H]2CC[C@@H](OC(=O)NCCO)[C@H](OC)C2)CC(=O)[C@H](C)/C=C(\C)[C@@H](O)[C@@H](OC)C(=O)[C@H](C)C[C@H](C)/C=C/C=C/C=C/1C (stereo partly drawn) [Compound 362]
10 |  |  | < 0.316 | < 1000 | COC1C[C@@H]2CC[C@@H](C)[C@@](O)(O2)C(=O)C(=O)N2CCCCC2C(=O)O[C@H]([C@H](C)C[C@@H]2CC[C@@H](OCCCN(C)C)[C@H](OC)C2)CC(=O)[C@H](C)/C=C(\C)[C@@H](O)[C@@H](OC)C(=O)[C@H](C)C[C@H](C)/C=C/C=C/C=C/1C (stereo partly drawn) [Compound 363, (1R,9S,12S,15R,16E,18R,19R, 21R,23S,24E,26E,28E,30S,32S,35R)-12-[(1R)-2-[(1S,3R,4R)-4-[3-(dimethylamino)propoxy]-3-methoxy-cyclohexyl]-1-methyl-ethyl]-1,18-dihydroxy-19,30-dimethoxy-15,17,21,23,29,35-hexamethyl-11,36-dioxa-4-azatricyclo[30.3.1.0^4,9]hexatriaconta-16,24,26,28-tetraene-2,3,10,14,20-pentone]
11 |  |  | < 0.316 | < 1000 | COC1C[C@@H]2CC[C@@H](C)[C@@](O)(O2)C(=O)C(=O)N2CCCCC2C(=O)O[C@H]([C@H](C)C[C@@H]2CC[C@@H](OC(=O)NCCc3c[nH]cn3)[C@H](OC)C2)CC(=O)[C@H](C)/C=C(\C)[C@@H](O)[C@@H](OC)C(=O)[C@H](C)C[C@H](C)/C=C/C=C/C=C/1C (stereo partly drawn) [Compound 364]
12 |  |  | < 0.316 | < 1000 | COC1C[C@@H]2CC[C@@H](C)[C@@](O)(O2)C(=O)C(=O)N2CCCCC2C(=O)O[C@H]([C@H](C)C[C@@H]2CC[C@@H](OC(=O)NCCN3CCCCC3)[C@H](OC)C2)CC(=O)[C@H](C)/C=C(\C)[C@@H](O)[C@@H](OC)C(=O)[C@H](C)C[C@H](C)/C=C/C=C/C=C/1C (stereo partly drawn) [Compound 365]
13 |  |  | > 3.16 | 1000 to 10000 | COC1C[C@@H]2CC[C@@H](C)[C@@](O)(O2)C(=O)C(=O)N2CCCCC2C(=O)O[C@H]([C@H](C)C[C@@H]2CC[C@@H](OC(=O)NCCCN3CCCCC3)[C@H](OC)C2)CC(=O)[C@H](C)/C=C(\C)[C@@H](O)[C@@H](OC)C(=O)[C@H](C)C[C@H](C)/C=C/C=C/C=C/1C (stereo partly drawn) [Compound 366]
14 |  |  | < 0.316 | < 1000 | COC1C[C@@H]2CC[C@@H](C)[C@@](O)(O2)C(=O)C(=O)N2CCCCC2C(=O)O[C@H]([C@H](C)C[C@@H]2CC[C@@H](OC(=O)NCCN3CCN(C)CC3)[C@H](OC)C2)CC(=O)[C@H](C)/C=C(\C)[C@@H](O)[C@@H](OC)C(=O)[C@H](C)C[C@H](C)/C=C/C=C/C=C/1C (stereo partly drawn) [Compound 367]
15 |  |  | < 0.316 | < 1000 | COC1C[C@@H]2CC[C@@H](C)[C@@](O)(O2)C(=O)C(=O)N2CCCCC2C(=O)O[C@H]([C@H](C)C[C@@H]2CC[C@@H](OCCCN3CCC(O)CC3)[C@H](OC)C2)CC(=O)[C@H](C)/C=C(\C)[C@@H](O)[C@@H](OC)C(=O)[C@H](C)C[C@H](C)/C=C/C=C/C=C/1C (stereo partly drawn) [Compound 368]
